Laboratory results as given in patent US20140154269A1, “TARGETED NANOVECTORS AND THEIR USE FOR TREATMENT OF BRAIN TUMORS” (The Methodist Hospital Research Institute, priority 2011, published 2014).

Key:
[1] = cited from earlier work
[2] = system: immortalized human glioblastoma cell cultures; details: cited from earlier work
[3] = system: primary GBM cell cultures; test: Cell viability measurements (ddTUNEL, Dead Green, Hoechst staining) in primary GBM cultures; details: 24 h; PEG-HCCs 2.6 nM, GFAPAB 3.9 nM, SN-38 2 μM
Experimental: Total, viable, and dead glioma cell numbers in confluent primary GBM cell cultures were measured using ddTUNEL (a quantitative assay for 3′ OH DNA ends), Dead Green, and Hoechst stains. Cells were treated with GFAPAB/SN-38/PEG-HCCs or saline for 24 h.
Primary human glioblastoma or astrocytoma cells were prepared from tumors within 10 min of their excision. The tumors were broken up using a pipette and then grown in DMEM, 20% FBS, GlutaMax-I, sodium pyruvate and Pen/Strep, for 2 weeks. After this time, and in all presented data, the same media was used, except that sodium pyruvate was omitted. […] GBM and NHA were grown to confluency in the appropriate media on Costar 96-well growth plates (Corning, N.Y.C, NY, USA). […] Cells were grown for 24 h in the presence or absence of all effectors, in a total volume of 250 μL.
The biotinylated ddUTP and biotinylated blunt ended oligonucleotide probe was visualized using Texas Red labeled avidin. […]
Cells were counted at 4× magnification using a Nikon Eclipse TE2000-E fluorescent microscope equipped with a CoolSnap ES digital camera system (Roper Scientific) containing an CCD-1300-Y/HS 1392×1040 imaging array cooled by a Peltier device. Images were recorded using Nikon NIS-Elements software as JEP2000 files.

| SMILES | Log P [1] | LD50 range reported by others [2] | toxicity towards GBM cells (average living cells from ddTUNEL, Dead Green, Hoechst) [3] |
| --- | --- | --- | --- |
| CC[C@]1(O)C[C@@H]2CN(CCc3c([nH]c4ccccc34)[C@@](C(=O)OC)(c3cc4c(cc3OC)N(C)[C@H]3[C@@](O)(C(=O)OC)[C@H](OC(C)=O)[C@]5(CC)C=CCN6CC[C@]43[C@@H]65)C2)C1 [Vin, Vinblastine] | 4.8 | – | – |
| CCc1c2c(nc3ccc(O)cc13)-c1cc3c(c(=O)n1C2)COC(=O)[C@]3(O)CC [SN-38] | 1.87 | 5 to 10 µM | not toxic |
